Source: patent US9447377B2, “Endodermal cells from pluripotent cells” (priority 2011, dated 2016)

How the values were obtained:
Type in all cases: cell-based, murine
wt ES cells [1] = assay: Differentiation of wt ES cells towards Sox17+ cells under PPP chemical inhibition, immunofluorescence analysis; conditions: immunofluorescence with anti-Sox17 antibody; serum-free KSR neural differentiation medium
Procedure: (§1) Wt murine or with a deletion of the gene coding for G6PD (G6pdΔ) embryonic stem (ES) cells have been differentiated following the method described in Fico et al. (Fico A et al., Stem Cells Dev 2008). Briefly, 48 h before the induction of the differentiation, the ES cells have been plated onto pre-gelatinized plates. On day 0, the cells have been dissociated, thus obtaining a single cell suspension, which have subsequently been plated onto gelatinized plates at a density of 1.500 cells/cm2. During the differentiation process, the culture medium has been changed every other day for the first 6 days, then daily. The culture medium used consists in the medium free from integrated Knockout Serum Replacement (KSR) serum, and contains knockout Dulbecco minimal essential medium, integrated with 15% KSR (Invitrogen), 2 mM glutamine, 100 U/ml penicillin/streptomycin, and 0.1 mM β-mercaptoethanol.
From 6 days of differentiation, the expression profiles of markers of undifferentiated cells and specific markers for the three germ layers have been analyzed by RT-PCR. The expression of Oct4 and Nanog, markers of undifferentiated ES cells, is detectable in both cell lines (FIG. 1A). […]

G6pdΔ cells [2] = assay: Quantitative (real-time) PCR of Sox17 mRNA in G6pdΔ cells differentiated in the presence of D-(−)-ribose; conditions: normalized to GAPDH, 10 neural differentiation days in the presence of D-(−)-ribose
Procedure: as §1, with “FIG. 2: (A) RT-PCR analysis of the expression of different specific differentiation markers in wt and Pgd+/- cells on neural differentiation days 8 and 10. (B) QRT-PCR analysis of Sox17 expression in wt ES e […]Δ cells after 10 neural differentiation days in the presence of D-(-)-ribose. Wt” for “Wt”, “[…]Δ)” for “(G6pdΔ)”, “β-mercaptoethanol. Heterozygous knock-out ES Pdg+/- cells for the phosphogluconate dehydrogenase (PDG) enzyme, the second enzyme present in the PPP, were exposed to the above-described differentiation procedure. […]” for “β-mercaptoethanol.”

wt ES cells [3] = assay: Differentiation of wt ES cells in the presence of D-(−)-ribose; conditions: 10 neural differentiation days
Procedure: as §1, with “[…]Δ)” for “(G6pdΔ)”, “β-mercaptoethanol. Heterozygous knock-out ES Pdg+/- cells for the phosphogluconate dehydrogenase (PDG) enzyme, the second enzyme present in the PPP, were exposed to the above-described differentiation procedure. These cells have reduced Pdg mRNA levels, and are not sensitive to oxidative stress. […] Furthermore, […]Δ cells were exposed to the same differentiation procedure, but in the presence of D-(-)-ribose. […]” for “β-mercaptoethanol.”

G6pdΔ cells [4] = assay: Differentiation of G6pdΔ cells towards pancreatic precursors, Real Time PCR of Pdx1 expression; conditions: G6pdΔ cells on differentiation day 8, 4 day exposure
Procedure: as §1
The real-time PCR analysis was carried out with a Biorad CFX 96 Real time System apparatus using a SYBR Green PCR Master Mix (Biorad) and the protocol recommended by the manufacturer. The relative expression of the various genes was normalized by using GAPDH as the gene standard. The used oligos were:
G6pdΔ cells on differentiation day 8, that are already expressing Sox17, are exposed to Indolactam V, an inducer of the differentiation of endoderm precursors towards pancreatic precursors. […]

NC(=O)c1ccc(N)nc1 [AN, 6-aminonicotinamide]
induction of differentiation of wt ES cells towards Sox 17+ cells (wt ES cells [1]): capable of inducing the differentiation of wt ES cells towards Sox 17+ cells

O=C[C@H](O)[C@H](O)[C@H](O)CO [D-(−)-ribose]
Sox17 mRNA levels in G6pdΔ cells (G6pdΔ cells [2]): a reduction in Sox17 mRNA levels
variation in the differentiation of wt ES cells (wt ES cells [3]): does not lead to any variation in the differentiation of wt ES cells

C[C@]12CC[C@H](O)CC1=CC[C@@H]1[C@@H]2CC[C@]2(C)C(=O)CC[C@@H]12 [DHEA, dehydroepiandrosterone]
induction of differentiation of wt ES cells towards Sox 17+ cells (wt ES cells [1]): capable of inducing the differentiation of wt ES cells towards Sox 17+ cells

CC(C)[C@H]1C(=O)N[C@H](CO)Cc2c[nH]c3cccc(c23)N1C [Indolactam V]
increase in the Pdx1 expression levels compared to control cells (G6pdΔ cells [4]): about 2.5 times
